pIC50: −log10 of the molar value.
Columns and labels:
Assay type in all cases: biochemical
GRK2 = target: T1, GRK2 (Homo sapiens, UniProt P25098); assay: kinase inhibition, IC50 of Blend A, ingredients and control
T1 sequence (P25098 1-689): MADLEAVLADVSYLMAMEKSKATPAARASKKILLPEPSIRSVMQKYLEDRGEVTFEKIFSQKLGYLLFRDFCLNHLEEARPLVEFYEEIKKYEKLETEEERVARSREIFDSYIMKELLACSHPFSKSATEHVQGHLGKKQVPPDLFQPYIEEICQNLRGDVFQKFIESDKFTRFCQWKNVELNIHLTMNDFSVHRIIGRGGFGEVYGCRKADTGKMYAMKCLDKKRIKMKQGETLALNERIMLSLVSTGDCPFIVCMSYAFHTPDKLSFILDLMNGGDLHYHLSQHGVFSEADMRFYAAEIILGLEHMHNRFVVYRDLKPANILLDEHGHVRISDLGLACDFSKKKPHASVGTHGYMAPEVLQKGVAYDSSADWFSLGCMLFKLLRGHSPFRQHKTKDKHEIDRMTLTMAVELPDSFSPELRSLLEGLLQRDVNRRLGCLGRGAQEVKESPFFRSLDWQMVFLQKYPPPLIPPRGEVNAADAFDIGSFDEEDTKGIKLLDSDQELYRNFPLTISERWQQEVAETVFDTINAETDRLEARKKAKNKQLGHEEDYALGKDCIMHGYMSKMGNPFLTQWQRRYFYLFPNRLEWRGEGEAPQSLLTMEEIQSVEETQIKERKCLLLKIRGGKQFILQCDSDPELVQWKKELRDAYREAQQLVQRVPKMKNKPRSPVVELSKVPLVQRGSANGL

GSK3α = GSK3α (Homo sapiens, UniProt P49840); assay: as above; settings: follow up investigation; for inositol the upper limit of use (1 mM) was used in the calculation
Sequence of GSK3α (P49840 whole entry, species assumed): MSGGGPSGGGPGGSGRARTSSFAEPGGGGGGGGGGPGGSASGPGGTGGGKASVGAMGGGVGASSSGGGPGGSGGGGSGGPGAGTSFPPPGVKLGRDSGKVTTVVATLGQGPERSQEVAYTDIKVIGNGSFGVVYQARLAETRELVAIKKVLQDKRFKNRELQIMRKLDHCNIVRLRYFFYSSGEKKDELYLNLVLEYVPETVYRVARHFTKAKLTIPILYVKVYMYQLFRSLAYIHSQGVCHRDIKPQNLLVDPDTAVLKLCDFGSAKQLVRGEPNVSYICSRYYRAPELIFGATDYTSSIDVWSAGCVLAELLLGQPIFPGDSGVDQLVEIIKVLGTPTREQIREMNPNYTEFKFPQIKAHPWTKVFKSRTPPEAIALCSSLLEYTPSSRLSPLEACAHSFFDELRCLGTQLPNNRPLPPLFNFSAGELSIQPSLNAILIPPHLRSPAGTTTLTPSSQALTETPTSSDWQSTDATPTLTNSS

GSK3β = GSK3β (Homo sapiens, UniProt P49841); assay: as above; settings: follow up investigation; for inositol the upper limit of use (1 mM) was used in the calculation
Sequence of GSK3β (P49841 whole entry, species assumed): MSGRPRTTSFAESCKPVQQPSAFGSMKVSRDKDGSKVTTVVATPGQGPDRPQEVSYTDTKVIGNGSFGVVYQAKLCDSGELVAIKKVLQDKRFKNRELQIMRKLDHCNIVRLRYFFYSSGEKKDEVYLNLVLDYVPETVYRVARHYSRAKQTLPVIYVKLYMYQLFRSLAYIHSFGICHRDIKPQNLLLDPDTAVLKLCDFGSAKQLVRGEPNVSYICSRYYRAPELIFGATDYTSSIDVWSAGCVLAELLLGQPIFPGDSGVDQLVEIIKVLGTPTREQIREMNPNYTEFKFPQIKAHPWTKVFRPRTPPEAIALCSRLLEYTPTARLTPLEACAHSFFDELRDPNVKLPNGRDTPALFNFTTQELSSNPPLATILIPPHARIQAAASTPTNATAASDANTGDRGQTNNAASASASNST

ERK1 = ERK1 (Homo sapiens, UniProt P27361); assay: kinase inhibition screen, IC50 of Blend A vs control compound; settings: initial investigation, Table 17; Blend A head reads IC50* (asterisk unexplained)
Sequence of ERK1 (P27361 whole entry, species assumed): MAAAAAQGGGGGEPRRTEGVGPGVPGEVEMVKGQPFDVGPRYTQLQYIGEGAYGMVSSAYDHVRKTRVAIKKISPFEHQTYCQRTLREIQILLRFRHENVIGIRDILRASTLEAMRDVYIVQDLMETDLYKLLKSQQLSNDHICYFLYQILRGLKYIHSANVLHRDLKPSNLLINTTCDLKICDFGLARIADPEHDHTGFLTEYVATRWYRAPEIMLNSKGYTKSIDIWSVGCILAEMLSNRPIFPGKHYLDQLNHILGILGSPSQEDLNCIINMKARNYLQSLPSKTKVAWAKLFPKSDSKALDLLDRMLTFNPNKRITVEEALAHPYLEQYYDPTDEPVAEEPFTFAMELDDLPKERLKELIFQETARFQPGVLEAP
Description: The cellular mechanism of action of known pharmaceutical compounds targeting mental health require the inhibition of individual enzymes. For example, one of the most well-known pharmaceuticals utilized in the mental health space, lithium, can trace its efficacy in part to the inhibition of an enzyme called glycogen synthase kinase 3 (GSK3). A technique similar to one used in the pharmaceutical industry was used to determine study a mood support composition. See, e.g., Duong-Ly, K. C. & Peterson, J. R. Curr. Protoc. Pharmacol. Chapter 2, Unit2.9 (2013); Ma, H. et al. Expert Opin. Drug Discov.
Within the body, protein kinases are responsible for carrying out cellular and intracellular actions, such as cell-to-cell signaling, neurotransmitter regulation, and hormone release. Several protein kinases are known to influence mood, and many are targets of therapeutic drugs. As a natural alternative to pharmaceuticals, Blend A was screened for efficacy of inhibiting 18 common, mood-related drug targets, including 17 kinases and 1 enzyme.

Q: Which “efficacy for inhibiting the target, in words” value (GRK2; follow up investigation, for inositol the upper limit of use (1 mM) was used in the calculation) does the source give for `O[C@H]1[C@H](O)[C@@H](O)[C@H](O)[C@@H](O)[C@H]1O` [Inositol, inositol] here?
A: did not demonstrate efficacy

Q: What about the “efficacy for inhibiting the target, in words” value (GSK3α) of the same molecule?
A: did not demonstrate efficacy

Q: What about the “efficacy for inhibiting the target, in words” value (GSK3β) of the same molecule?
A: did not demonstrate efficacy

Q: How did the pIC50 (ERK1) turn out when `O=C(Nc1ccc2[nH]nc(-c3ccncc3)c2c1)[C@@H]1CCN(CC(=O)N2CCN(c3ccc(-c4ncccn4)cc3)CC2)C1` [SCH772984] was run?
A: 8.25

Q: With `CN[C@@H]1C[C@H]2O[C@@](C)([C@@H]1OC)n1c3ccccc3c3c4c(c5c6ccccc6n2c5c31)C(=O)NC4` [STAUROSPORINE, staurosporine, reference compound] as the molecule, how does the “Reciprocal Sum” value (GRK2; Table 19, sum of the two analyses, each 50% weight) read?
A: 1.60E+06

— patent publication US20250352596A1, “DIETARY SUPPLEMENTS FOR MOOD SUPPORT” (Melaleuca, Inc., priority 2024, published 2025)
